Results reported in patent US20160272937A1, “METHODS OF GENERATING INTERMEDIATE MESODERM CELLS FROM HUMAN PLURIPOTENT STEM CELLS” (THE BRIGHAM AND WOMEN'S HOSPITAL, INC., priority 2013, published 2016).

Legend:
[1] = test system: human pluripotent stem cells (hPSCs); assay: Spontaneous differentiation of CHIR-induced mesendodermal cells after CHIR withdrawal, marker immunocytochemistry; type: cell-based; details: day 4
Description: (§1) Mesendoderm differentiation—the media is changed to Advanced RPMI (A-RPMI, Invitrogen) supplemented with 1×L-glutamax and 1× penicillin/streptomycin and either CHIR99021 (CHIR, Stemgent), human Wnt3a (R&D systems), and/or human activin A (R&D systems) at the doses described. Definitive endoderm differentiation—cells are treated with A-RPMI+1×L-glu+1×P/S+5 μM CHIR for 24 hours, then A-RPMI+1×Lglu+1×P/S+100 ng/mL of activin A for 2-3 days. Hepatic differentiation—cells at the definitive endoderm stage are treated with A-RPMI+1×L-glu+1×P/S+1×B27 supplement (Invitrogen)+20 ng/mL BMP-4 (R&D systems)+10 ng/mL FGF2 (Invitrogen) for 5 days, then A-RPMI+1×L-glu+1×P/S+1×B27+10 ng/mL HGF for 5 days, then HCM Hepatocyte Culture Medium (Lonza) supplemented with 20 ng/mL Oncostatin M and 10 ng/mL HGF (Peprotech) for 5 days. Pancreatic differentiation—cells at the definitive endoderm stage are treated with DMEM/F12+2% FBS (Hyclone)+50 ng/mL FGF7 (R&D systems) for 2 days, then high-glucose DMEM (Mediatech)+1% B27+2 μM retinoic acid (Sigma)+0.25 μM KAAD cyclopamine (EMD Millipore)+100 ng/mL recombinant human Noggin (R&D systems) for 4 days, then high-glucose DMEM+1% B27+100 ng/mL Noggin+300 nM indolactam V (Stemgent)+1 μM ALK5 inhibitor II (Axxora) for 4 days. Anterior foregut endoderm differentiation—cells at the definitive endoderm stage are treated with DMEM/F12+1×L-glu+1×B27+200 ng/mL Noggin+10 μM SB431542 (Stemgent) for 3 days. For hindgut endoderm differentiation, cells at the definitive endoderm stage were treated with A-RPMI+1×L-glu+1×P/S+2% FBS+500 ng/mL FGF4 (R&D systems)+5 μM CHIR for 4 days. […] Intermediate mesoderm differentiation—cells are treated with A-RPMI+1×L-glu+1×P/S+5 μM CHIR for 24, 36, or 48 hours, then A-RPMI+1×L-glu+1×P/S+100 ng/mL FGF2+1 μM retinoic acid for 2-3 days. Cap mesenchyme differentiation—cells were treated with A-RPMI+13 L-glu+13 P/S+5 mM CHIR for 36 hours, then A-RPMI+13 L-glu+13 P/S+100 ng/ml FGF2+1 mM retinoic acid for 36-42 hours, then A-RPMI+13L-glu+13P/S+100 ng/ml FGF-9 (R&D Systems)+10 ng/ml activin A for 3 days.
For immunofluorescence studies, cultures are washed once with PBS (Invitrogen) and fixed in 4% paraformaldehyde for 15 min at room temperature (RT). Fixed cells are then washed three times in PBS and incubated in blocking buffer (0.3% Triton X-100 (Fisher Scientific) and 5% normal donkey serum (EMD Millipore) in PBS) for 1 hour at RT.
The cells are then incubated with primary antibody overnight at 4° C. or for 2 hours at RT in antibody dilution buffer (0.3% Triton X-100 and 1% BSA (Roche) in PBS). Cells are then washed three times in PBS and incubated with Alexa Fluor 488-, 555-, or 647-conjugated secondary antibodies (1:500) (Molecular Probes) in antibody dilution buffer for 1 hour at RT. For immunostaining with Biotinylated Lotus Tetragonolobus Lectin (LTL, Vector Labs), a Streptavidin/Biotin Blocking Kit (Vector Labs) and Alexa Fluor 488- or 647-conjugated Streptavidin (Molecular Probes) were used according to manufacturer's instructions.
Nuclei can be counterstained with DAPI (Sigma). […] Immunofluorescence is visualized using an inverted fluorescence microscope (Nikon Eclipse Ti, Tokyo, Japan). Quantification is performed by counting a minimum of five random fields at 10× magnification.
To determine whether treatment with CHIR alone is sufficient to induce differentiation towards IM, the Inventors investigated the intrinsic multipotency of CHIR-induced mesendodermal cells by withdrawing CHIR from the culture media after either 24 or 48 hours of induction and allowing the cells to differentiate for another 3-4 days (FIG. 2A).

[2] = test system: human pluripotent stem cells (hPSCs); assay: Quantitative RT-PCR gene expression in CHIR-treated hPSCs; type: cell-based
Description: Total RNA is harvested and isolated from cells using the RNeasy Mini Kit (Qiagen). 1 μg RNA is used for reverse transcription with the M-MLV Reverse Transcriptase system (Promega), or 500 ng RNA is used for High Capacity cDNA Reverse Transcription Kits (Applied Biosystems). RT-PCR reactions can be run in duplicate using cDNA (diluted 1:10), 300 or 400 nM forward and reverse primers, and iQ SYBR Green Supermix (Biorad) or iTAQ SYBR Green Supermix (Biorad). Quantitative RT-PCR is performed using the iQ5 Multicolor Real-Time PCR Detection System (Biorad). Samples can be run with two technical replicates to ensure precision and accuracy. β-actin can be used as a housekeeping gene. […] In parallel, the induction of the mesendoderm state was accompanied by the loss of pluripotency as reflected by a reduction of OCT4 and NANOG mRNA (FIG. 1D). […] As cells migrate through the primitive streak during development, they express SNAIL, downregulate E-cadherin expression, upregulate N-cadherin expression, and undergo an epithelial-mesenchymal transition (“EMT”). […] This was associated with EMT with waves of cells migrating away from the periphery of differentiating colonies between 36-48 hours of differentiation (FIG. 1G), and a switch in cadherin expression from E-cadherin to N-cadherin (FIG. 1H).

[3] = test system: hPSCs (hESC and hiPSC lines); assay: Intermediate mesoderm differentiation: PAX2/LHX1 immunostaining; type: cell-based, human; details: CHIR pre-treatment 48 hours compared to 24 or 36 hours, all time points
Description: as §1, with “Intermediate mesoderm differentiation—cells are treated with A-RPMI+1×L-glu+1×P/S+5 μM CHIR for 24, 36, or 48 hours, then A-RPMI+1×L-glu+1×P/S+100 ng/mL FGF2+1 μM retinoic acid for 2-3 days. Cap mesenchyme differentiation—cells were treated with A-RPMI+13 L-glu+13 P/S+5 mM CHIR for 36 hours, then A-RPMI+13 L-glu+13 P/S+100 ng/ml FGF2+1 mM retinoic acid for 36-42 hours, then A-RPMI+13L-glu+13P/S+100 ng/ml FGF-9 (R&D Systems)+10 ng/ml activin A for 3 days.” left out
Nuclei can be counterstained with DAPI (Sigma). […] Immunofluorescence is visualized using an inverted fluorescence microscope (Nikon Eclipse Ti, Tokyo, Japan). Quantification is performed by counting a minimum of five random fields at 10× magnification. […]

[4] = CHIR pulse 24 hours then withdrawal

## Cc1c[nH]c(-c2cnc(NCCNc3ccc(C#N)cn3)nc2-c2ccc(Cl)cc2Cl)n1 [CHIR99021]
[1]; [4]
  FOXF1+ lateral plate mesoderm cells: approximately 40%
  cells expressing pluripotency marker OCT4: 30-40%
[1]; CHIR treatment 48 hours
  appearance of OCT4+ cells: eliminated the appearance of OCT4+ cells
  cells staining positive for FOXF1: greater than 80%
[1]; CHIR treatment alone
  cells expressing PAX6: < 1%
  cells expressing SOX17: < 1%
  cells with protein expression of IM marker PAX2: < 1%
  cells with protein expression of paraxial mesoderm marker TBX6: < 10%
[2]; CHIR for 24 or 48 hours, day 4, compared to DMSO-treated controls
  BMP-4 transcript expression: significantly upregulated
[2]; CHIR time course
  OCT4 and NANOG mRNA: reduction
[2]; as early as 24 hours after treatment
  SNAI1 expression: upregulation
[2]; within 24 hours of treatment, peak 36-48 hours, decreased by 72 hours
  expression of primitive streak genes (BRACHY, MIXL1, EOMES, FOXA2, GSC): rapidly upregulated
[3]
  PAX2 expression: less PAX2 expression
